Source: PubChem BioAssay AID1322 (NMMLSC, 2008)
Activity calls are given as the source filed them. No rule for the calls is given here.

Target: Bcl-2-like protein 1 (Homo sapiens) (UniProt Q07817)
Experiment: Bcl-XL binding to Bim peptide disruption – biochemical, multiplexed, bead flow cytometry, human Bcl-XL, dose response (AID 1322); as to inhibition: test concentration not given here
Details: Bead-based flow cytometry, MCF; for inhibition: active compounds read high

Bcl-2-like protein 1 (Homo sapiens), sequence (Q07817 whole entry, looked up): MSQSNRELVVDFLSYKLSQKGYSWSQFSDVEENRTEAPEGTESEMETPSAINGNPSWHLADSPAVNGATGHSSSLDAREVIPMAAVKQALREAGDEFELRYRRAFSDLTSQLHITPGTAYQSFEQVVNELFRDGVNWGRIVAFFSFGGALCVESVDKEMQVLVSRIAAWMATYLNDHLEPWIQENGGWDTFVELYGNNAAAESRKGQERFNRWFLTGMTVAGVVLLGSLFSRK

outcome | inhibition | Compound
inactive |  | Cc1ccc(C(NC(=O)C(C)C)c2cc([N+](=O)[O-])c3cccnc3c2O)cc1 (centres undefined)
 | inactive | CCCCCCc1cc2cc(C(=O)Nc3ccccc3)c(=O)oc2cc1O
 | inactive | CCc1cccc(CC)c1-n1c(-c2cccnc2)n[nH]c1=S
 | inactive | Cc1ccc(NC(=O)CC2S/C(=N/N=C/c3c[nH]c4ccccc34)NC2=O)cc1 (centres undefined)
 | inactive | Cc1ccc(/C=C2\CCCC3=C2NC(=S)NC3c2ccc(C)cc2)cc1 (centres undefined)
 | inactive | O=C(/C=C/c1ccc(-c2ccccc2[N+](=O)[O-])o1)c1ccccc1
 | inactive | CCOc1cc(S(=O)(=O)Nc2ccccn2)ccc1F
 | inactive | COCCNC(=O)CN1CCC(NC(=O)Nc2ccccc2)CC1
 | inactive | COc1ccc(-c2noc(COc3ccc4c(c3)OCO4)n2)cc1OC
 | inactive | Cc1ccc(Nc2nc(-c3c(C)nc4ncccn34)cs2)cc1
 | inactive | O=[N+]([O-])c1ccc(-c2cn(-c3ccc(Cl)cc3)c(=S)[nH]2)cc1
inactive |  | CNC(=O)CC1C(=O)N(Cc2ccccc2)C(=S)N1NC(=O)c1cccc(F)c1 (centres undefined)
 | inactive | CN(C)/C=C/C(=O)c1ccc(C(F)(F)F)cc1F
inactive |  | Oc1ccc(NCc2ccccc2OCc2ccccc2)cc1
 | inactive | CN(C)c1ccc(Nc2nc(-c3cccnc3)cs2)cc1
 | inactive | N#Cc1ccc(N=c2ssnc2Cl)cc1
 | inactive | O=C(Nc1nccs1)c1ccc(COc2ccc(F)cc2)o1
 | inactive | O=C(c1cnccn1)N1CCN(c2ccccc2F)CC1
 | inactive | O=S1(=O)N=C(N(CCO)/N=C/c2ccccc2)c2ccccc21
inactive |  | OCCC1CN(Cc2ccc3ncccc3c2)CCN1Cc1ccccc1 (centres undefined)
 | inactive | Nc1c(C(=O)NCc2ccco2)sc2nc3c(cc12)C(=O)CCC3
inactive |  | CCOc1ccccc1/C=N/NC(=O)CNC(=O)COc1ccccc1

outcome | inhibition | Compound
inactive |  | O=C(O)/C=C/C(=O)NNC(=O)c1ccc(Br)cc1
 | inactive | CCCn1c(SCC(=O)Nc2ccccc2-c2ccccc2)nnc1-c1ccoc1C
 | inactive | O=c1[nH]c(SCc2nc3ccccc3c(=O)n2-c2ccccc2C(F)(F)F)nc2ccccc12
 | inactive | CCc1ccc(NC(=O)CC2NCCNC2=O)cc1 (centres undefined)
 | inactive | Cc1ccc(N=Cc2c(O)n(-c3ccc4c(c3)OCO4)c(=O)c3ccccc23)cc1
 | inactive | Cc1cc(NC(=O)CCSc2ccccc2)ccc1Br
 | inactive | CN(C)S(=O)(=O)N(CC(=O)Nc1ccccc1C(F)(F)F)c1ccccc1
inactive |  | O=C1Nc2ccc([N+](=O)[O-])cc2OC1CCN1CCN(Cc2ccc3c(c2)OCO3)CC1 (centres undefined)
 | inactive | COc1cccc2c1C(=O)C=C(C)C2=O
 | inactive | COc1ccc(N2C(=O)C(Cl)=C(Oc3cccc(OC)c3)C2=O)cc1
 | inactive | CNc1ccc(Br)cc(C(=O)/C=C/c2ccc(OC)cc2OC)c1=O
inactive |  | Cn1c(CCNC(=O)C2CCCCC2)nc2cc(NC(=O)c3cccs3)ccc21
 | inactive | Cc1nc2ccccc2n1CSc1ccccc1
 | inactive | COc1cc2[nH]c(=S)nc(NCCCOC(C)C)c2cc1OC
 | inactive | COc1ccccc1-n1c(-c2cc(-c3ccc(F)cc3)n[nH]2)n[nH]c1=S
 | inactive | Nc1ccccc1N=c1ssnc1Cl
inactive |  | COc1ccc(/C=C/C(=O)c2cc(Br)ccc(=O)c2O)cc1
 | inactive | O=C(Cc1ccc(-c2ccccc2)cc1)NC1CCCC1
 | inactive | COc1ccc(/C=C2\SC(=O)NC2=S)cc1OC
 | inactive | CCOC(=O)c1[nH]cnc1C(=O)NC(C)C
 | inactive | O=C(CSc1nnc(-c2ccco2)n1Cc1ccccc1)c1ccccc1
 | inactive | Cc1ccc(-c2cc(C(=O)Nc3ccccc3C)c3ccccc3n2)o1

outcome | inhibition | Compound
 | inactive | Cc1ccc(OCC(=O)NCc2ccccn2)c(Br)c1
 | inactive | COc1ccccc1-n1c(SCC(=O)N2CCc3ccccc32)nc2c(c1=O)SCC2
 | inactive | COC(=O)c1ccc(-n2nnnc2SCC(=O)Nc2cc(OC)ccc2OC)cc1
 | inactive | O=C(Nc1nnc(C2CC2)s1)C1Cc2ccccc2CN1S(=O)(=O)c1ccccc1F (centres undefined)
 | inactive | O=C(COc1ccccc1)N1CCN(c2ncnc3c2cnn3-c2ccccc2)CC1
 | inactive | O=C1NC(=S)S/C1=C/c1ccc(N2CCOCC2)o1
 | inactive | COC(=O)c1sc2nc[nH]c(=O)c2c1C
 | inactive | Cc1nc2scc(-c3ccccc3)c2c(=O)n1N=C1C=CC(=O)C=C1
inactive |  | CCOc1ccc(-n2cc(-c3ccc(OC)c(OC)c3)[nH]c2=S)cc1
 | inactive | CCN(CC)c1ccc(-c2nn3c(-c4ccccc4OC)nnc3s2)cc1
 | inactive | Cc1cc(C)nc(/N=C(\N)N2CCc3ccccc32)n1
 | inactive | CC(C)NS(=O)(=O)c1ccc(OCC(=O)Nc2ccc(F)cc2)cc1
 | inactive | Cc1cc(-c2nn(-c3ccccc3)cc2/C=C2\SC(N)=NC2=O)ccc1OC(C)C
inactive |  | CC1Nc2ccccc2C(=O)N1NS(=O)(=O)c1ccccc1 (centres undefined)
 | inactive | O=C(COc1ccccc1Br)NCc1ccccn1
 | inactive | O=C(COCC(=O)NCc1ccccc1)NCc1ccccc1
 | inactive | Cc1ccnc(NS(=O)(=O)c2ccc(NS(=O)(=O)c3cccs3)cc2)n1
 | inactive | Cc1cc(N2CCN(C)CC2)nc2ccc(NC(=S)N3CCCCC3)cc12
 | inactive | Cc1cccc(OCC(=O)NCC(=O)N/N=C/c2cc(Br)ccc2OCc2ccccc2)c1
inactive |  | Cc1ccc(NC(=S)N2CCn3cccc3C2c2cccnc2)cc1 (centres undefined)
inactive |  | O=C(C[n+]1ccc(-c2nnc3n2CCC3)cc1)c1ccc(Cl)cc1
 | inactive | COc1cc(CNc2ccc(N3CCCC3)cc2)cc(Cl)c1OC

outcome | inhibition | Compound
 | inactive | O=C(/C=C/c1ccc(-c2ccccc2[N+](=O)[O-])o1)c1ccc(F)cc1
 | inactive | Cc1cc(N2CCN(C)CC2)nc2ccc(NC(=S)N3CCN(c4cccc(Cl)c4)CC3)cc12
 | inactive | O=C(COc1ccc(Br)cc1CNC1CCCCC1)NCCc1ccccc1
 | inactive | CNCc1ccccc1Sc1ccc(O)c(O)c1
 | inactive | O=C(COC(=O)c1ccccn1)NC1CCCCC1
 | inactive | S=C1NC2=C(CCC/C2=C\c2ccccc2)C(c2ccccc2)N1 (centres undefined)
 | inactive | Nc1ccc(N2CCCCCC2)cc1
 | inactive | CCOc1cccc(CNc2ccc(O)cc2)c1OCc1ccc(Cl)cc1
 | inactive | Cc1c(N2C(=O)c3ccc4c5c(ccc(c35)C2=O)CC4)c(=O)n(-c2ccccc2)n1C
 | inactive | COc1ccccc1OCc1ccc(C(=O)Nc2ccccc2F)cc1
 | inactive | Cc1cc(Cl)ccc1N=c1ssnc1Cl
 | inactive | CC(C)c1ccc(/C=N/NC(=O)c2ccccc2Cl)cc1
 | inactive | CCC(=O)N(CC)C1=C(O)c2ccccc2C(=O)C1=O
 | inactive | O=C(Nc1ccc2nc(-c3ccco3)c(-c3ccco3)nc2c1)N1CCCCCC1
 | inactive | COc1ccc(OC)c2sc(NC(=O)c3ccc(Br)s3)nc12
 | inactive | Cc1[nH]n(C(N)=S)c(=O)c1N=Nc1ccc(S(=O)(=O)N2CCCCCC2)cc1
 | inactive | Cc1csc(Nc2ccccc2C(F)(F)F)n1
 | inactive | S=c1[nH]cc(-c2ccccc2)n1-c1ccccc1Cl
 | inactive | C=CCn1c(C)c(C(C)=O)c(N2CCOCC2)nc1=S
 | inactive | Cc1ccc(-c2cc(C(=O)OCC(=O)N(C)C3CCS(=O)(=O)C3)c3ccccc3n2)o1 (centres undefined)
 | inactive | Cc1cc(-c2csc(N)n2)c(C)n1CCc1ccccc1
 | inactive | O=C1/C(=C/c2cccs2)Sc2ccccc21

outcome | inhibition | Compound
inactive |  | Clc1nssc1=Nc1ccc(Br)cc1
 | inactive | C(=C\c1ccccc1)/CSc1nnc(-c2ccccn2)n1Cc1ccco1
 | inactive | O=S1(=O)N=C(N(CCO)/N=C/c2ccncc2)c2ccccc21
 | inactive | CC1(C)CC(=O)C(C=NCCN2CCN(CCc3ccccc3)CC2)=C(O)C1
inactive |  | O=C(O)c1cccc(NC2=C(Cl)C(=O)c3ccccc3C2=O)c1
inactive |  | O=C(CC1NCCNC1=O)Nc1cccc([N+](=O)[O-])c1 (centres undefined)
 | inactive | Cn1c(=O)c2c(nc(NCCO)n2CCc2ccccc2)n(C)c1=O
inactive |  | Cn1cccc1CC(=O)N/N=C\c1ccccc1
 | inactive | Cc1ccc(C(=O)C(C(=O)/C=C/c2ccccc2)=C2SCCCS2)cc1
 | inactive | COC(=O)c1c(C(=O)OC)c2cccc3cc(-c4ccccc4)c4ccc1c4n32
inactive |  | O=C1N/C(=C/c2cccn2-c2ccccc2)C(=O)N1Cc1ccc(F)cc1
 | inactive | CNc1ccc(Br)cc(C(=O)/C=C/c2cccc(OC)c2)c1=O
 | inactive | O=C(Nc1nnc(SCc2ccccn2)s1)C1CC(=O)N(c2ccccc2)C1 (centres undefined)
 | inactive | CNC(=O)c1sc(-c2ccccn2)nc1C
 | inactive | N/C(=N\N=C/c1ccc(Br)cc1)N/N=C\c1ccc(Br)cc1
 | inactive | O=C(c1ccccc1NS(=O)(=O)c1ccc(Br)s1)N1CCCC1
inactive |  | Cn1c(=O)c2cc(S(=O)(=O)Nc3cc(C(=O)O)cc(C(=O)O)c3)ccc2n(C)c1=O
 | inactive | COc1ccc(NS(=O)(=O)c2cc(NC(=O)c3ccc(C)o3)ccc2N2CCCCC2)cc1
 | inactive | CCC(=O)OCCNc1cc(Sc2nc3ccccc3[nH]2)c2nonc2c1[N+](=O)[O-]
 | inactive | Cc1ccc(-n2nc(C)c(C(=O)O)n2)c(C)c1
inactive |  | COc1ccc(CC(=O)Nc2ccccc2Oc2ccccc2)cc1
